According to ChEMBL document CHEMBL1127140, “Inhibition of human leukocyte elastase. 7. Inhibition by 6-substituted penicillin amides” (Bioorg Med Chem Lett, 1993):

What was measured:
[1] = target: T1, Neutrophil elastase (Homo sapiens) (UniProt P08246)
T1 sequence (whole entry): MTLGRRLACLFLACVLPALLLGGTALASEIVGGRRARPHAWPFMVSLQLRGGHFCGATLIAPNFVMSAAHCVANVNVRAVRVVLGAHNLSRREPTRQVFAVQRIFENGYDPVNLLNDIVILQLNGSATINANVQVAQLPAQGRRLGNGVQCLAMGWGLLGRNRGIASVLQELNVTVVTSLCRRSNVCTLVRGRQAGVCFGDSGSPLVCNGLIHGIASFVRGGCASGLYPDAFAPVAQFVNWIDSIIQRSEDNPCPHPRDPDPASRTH
Description: Inhibition of Elastase using Suc-Ala-Ala-Pro-Ala-pNA as substrate, activity expressed as Kobs/[I] (second order rate constant)

[2] = Tested for chemical stability of the compound; format: physicochemical
Neutrophil elastase = target: T2, Neutrophil elastase (Homo sapiens, UniProt P08246); experiment: Tested in vitro for its inhibitory effect against Elastase using Suc-Ala--Ala-Pro-Ala-pNA as substrate
T2 sequence (P08246 whole entry): T1 sequence (whole entry)

Cricetinae gen. sp. [3] = experiment: Tested in vivo for inhibition of hamster lung hemorrhage after intratracheal administration at 1 hr prior to challenge with HLE (human leukocyte elastase); format: functional, Cricetulus griseus
Cricetinae gen. sp. [4] = experiment: Tested in vivo for inhibition of hamster lung hemorrhage after intratracheal administration at 2 hr prior to challenge with HLE (human leukocyte elastase); format: functional, Cricetulus griseus
Cricetinae gen. sp. [5] = experiment: Tested in vivo for inhibition of hamster lung hemorrhage after intratracheal administration at 3h prior to challenge with HLE(human leukocyte elastase); format: functional, Cricetulus griseus
Cricetinae gen. sp. [6] = experiment: Tested in vivo for inhibition of hamster lung hemorrhage after intratracheal administration at 3h prior to challenge with HLE (human leukocyte elastase); format: functional, Cricetulus griseus
[7] = target: T1, Neutrophil elastase (Homo sapiens); experiment: Tested in vitro for its inhibitory effect against Human leukocyte elastase using Suc-Ala--Ala-Pro-Ala-pNA as substrate, activity expressed as Kobs/[I] (second order rate constant)

| Compound | K obs / 1 [1] | half-life [2] | Ki (Neutrophil elastase) | other results |
| --- | --- | --- | --- | --- |
| CC1(C)[C@H](C(=O)OCc2ccc(C(=O)O)cc2)N2C(=O)[C@H](NC(=O)C(F)(F)F)[C@H]2S1(=O)=O | 89000 M⁻¹ s⁻¹ | 1.1 h |  |  |
| CC1(C)[C@H](C(=O)N2CCC[C@@H]2C(=O)O)N2C(=O)[C@@H](NC(=O)C(F)(F)F)[C@H]2S1(=O)=O |  |  | 22 µM |  |
| CC1(C)[C@H](C(=O)OCc2ccc(C(=O)O)cc2)N2C(=O)[C@H](NC(=O)C(F)(F)F)[C@H]2[S+]1[O-] (stereo partly drawn) |  | 1.4 h | 1.5 µM |  |
| CO[C@H]1C(=O)N2[C@@H](C(=O)N(C)CC(=O)O)C(C)(C)S(=O)(=O)[C@H]12 |  |  | 53 µM |  |
| CO[C@H]1C(=O)N2C(C(=O)N3CCC[C@H]3C(=O)O)=C(COC(C)=O)CS(=O)(=O)[C@H]12 | 3800 M⁻¹ s⁻¹ |  |  | Inhibition (Cricetinae gen. sp. [3]): 99%; Inhibition (Cricetinae gen. sp. [4]): 97%; Inhibition (Cricetinae gen. sp. [5]): 78% |
| CN(C(=O)C(F)(F)F)[C@H]1C(=O)N2[C@@H](C(=O)OCc3ccc(C(=O)O)cc3)C(C)(C)S(=O)(=O)[C@H]12 | 5700 M⁻¹ s⁻¹ |  |  |  |
| CN(CC(=O)O)C(=O)[C@@H]1N2C(=O)[C@H](NC(=O)C(F)(F)F)[C@H]2S(=O)(=O)C1(C)C |  | 4.8 h | 14 µM |  |
| CC1(C)[C@H](C(=O)N2CCC[C@@H]2C(=O)O)N2C(=O)[C@H](NC(=O)C(F)(F)F)[C@H]2S1(=O)=O | 26 M⁻¹ s⁻¹ |  |  |  |
| CN(CC(=O)O)C(=O)[C@@H]1N2C(=O)[C@@H](NC(=O)C(F)(F)F)[C@H]2S(=O)(=O)C1(C)C |  |  | 50 µM |  |
| CO[C@H]1C(=O)N2C(C(=O)N(C)CC(=O)O)=C(COC(C)=O)CS(=O)(=O)[C@H]12 |  |  |  | Inhibition (Cricetinae gen. sp. [6]): 54%; Inhibition (Cricetinae gen. sp. [3]): 97%; Inhibition (Cricetinae gen. sp. [4]): 80% |
| CN(Cc1ccc(C(=O)O)cc1)C(=O)[C@@H]1N2C(=O)[C@@H](NC(=O)C(F)(F)F)[C@H]2S(=O)(=O)C1(C)C | 275 M⁻¹ s⁻¹ | 4.5 h |  |  |
| CCO[C@H]1C(=O)N2[C@@H](C(=O)OCc3ccc(C(=O)O)cc3)C(C)(C)S(=O)(=O)[C@H]12 |  |  | 1.3 µM |  |
| CC1(C)[C@H](C(=O)OCc2ccc(C(=O)O)cc2)N2C(=O)[C@H](NC(=O)C(F)(F)F)[C@@H]2[S+]1[O-] (stereo partly drawn) | 4900 M⁻¹ s⁻¹ | 5.3 h |  |  |
| CN(Cc1ccc(C(=O)O)cc1)C(=O)[C@@H]1N2C(=O)[C@H](NC(=O)C(F)(F)F)[C@H]2[S+]([O-])C1(C)C (stereo partly drawn) | 60 M⁻¹ s⁻¹ | 8.2 h |  |  |
| CN(Cc1ccc(C(=O)O)cc1)C(=O)[C@@H]1N2C(=O)[C@H](NC(=O)C(F)(F)F)[C@@H]2[S+]([O-])C1(C)C (stereo partly drawn) | 1100 M⁻¹ s⁻¹ | 8.6 h |  |  |
| CN(Cc1ccc(C(=O)O)cc1)C(=O)[C@@H]1N2C(=O)[C@H](NC(=O)C(F)(F)F)[C@H]2S(=O)(=O)C1(C)C | 5400 M⁻¹ s⁻¹ | 4.2 h |  |  |
| CC1(C)[C@H](C(=O)OCc2ccc(C(=O)O)cc2)N2C(=O)[C@@H](NC(=O)C(F)(F)F)[C@H]2S1(=O)=O | 7100 M⁻¹ s⁻¹ | 1.1 h |  |  |
| CO[C@H]1C(=O)N2[C@@H](C(=O)OCc3ccc(C(=O)O)cc3)C(C)(C)S(=O)(=O)[C@H]12 |  | < 1 h |  | K obs / 1 [7]: 5600 M⁻¹ s⁻¹ |
